Reference: ChEMBL document CHEMBL1201862, “PubChem BioAssay data set” (2004)
Active and inactive are the calls of the source.

How the values were obtained:
[1] = biological target: T1, Short transient receptor potential channel 4 (Mus musculus, UniProt Q9QUQ5); experiment: TRPC4 positive allosteric modulators, dose response, cell-based, HEK293 TRPC4/mu-opioid, Fluo-4 calcium, EC20 DAMGO (AID 434941); type: functional
T1 sequence (Q9QUQ5 whole entry): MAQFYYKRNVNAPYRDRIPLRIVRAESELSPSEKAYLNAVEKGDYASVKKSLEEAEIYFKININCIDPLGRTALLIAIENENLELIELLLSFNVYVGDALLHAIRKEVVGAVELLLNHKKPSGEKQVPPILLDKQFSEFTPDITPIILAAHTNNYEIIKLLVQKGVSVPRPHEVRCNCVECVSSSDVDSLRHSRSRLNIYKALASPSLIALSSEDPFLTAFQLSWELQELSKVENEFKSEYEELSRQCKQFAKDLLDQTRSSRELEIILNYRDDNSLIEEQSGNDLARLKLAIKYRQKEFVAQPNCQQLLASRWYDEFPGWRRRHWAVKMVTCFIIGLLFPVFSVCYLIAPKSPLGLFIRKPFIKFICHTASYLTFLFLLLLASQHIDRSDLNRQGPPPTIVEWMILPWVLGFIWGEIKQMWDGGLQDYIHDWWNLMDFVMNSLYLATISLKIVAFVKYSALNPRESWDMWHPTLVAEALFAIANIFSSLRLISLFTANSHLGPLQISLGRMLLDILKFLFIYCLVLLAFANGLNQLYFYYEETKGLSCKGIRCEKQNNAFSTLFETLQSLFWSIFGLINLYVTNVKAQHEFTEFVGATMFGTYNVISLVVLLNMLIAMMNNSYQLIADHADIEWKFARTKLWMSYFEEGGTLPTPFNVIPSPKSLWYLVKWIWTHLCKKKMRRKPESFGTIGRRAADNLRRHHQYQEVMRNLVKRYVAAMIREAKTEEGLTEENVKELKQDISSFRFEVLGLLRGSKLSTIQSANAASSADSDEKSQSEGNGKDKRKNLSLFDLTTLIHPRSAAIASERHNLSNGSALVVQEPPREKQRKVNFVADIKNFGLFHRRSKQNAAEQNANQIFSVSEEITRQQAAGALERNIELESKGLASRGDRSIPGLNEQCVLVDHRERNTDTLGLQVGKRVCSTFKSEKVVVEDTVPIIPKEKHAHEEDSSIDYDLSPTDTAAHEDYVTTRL

[2] = tested on: Vero; experiment: host cell cytotoxicity of antiviral hits, dose response, cytotoxicity control for West Nile virus antiviral project, secondary assay (AID 1650); type: functional; details: Chlorocebus sabaeus
[3] = inhibitors of intracellular T. cruzi replication, confirmation, NIH3T3 host cells, beta-gal luminescence (AID 2044); type: functional, cell-based;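 note: intracellular parasites grown in NIH/3T3 mouse fibroblasts as host cells; luminescent beta-galactosidase reporter signal from transgenic T. cruzi replicating inside host cells; inhibitors lower the luminescence signal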
[4] = cytotoxicity toward NIH3T3 fibroblasts, dose response, counter-screen, cell-based, ATP luminescence, mouse fibroblasts (AID 2010); type: functional;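 note: cells exposed to compound for about 90 hours before reading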
[5] = biological target: T2, Ubiquitin-conjugating enzyme E2 N (Homo sapiens, UniProt P61088); type: functional;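 note: Dose-response confirmation in a TR-FRET assay detecting UBC13-driven polyubiquitin chain formation, inhibition measured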
T2 sequence (P61088 whole entry): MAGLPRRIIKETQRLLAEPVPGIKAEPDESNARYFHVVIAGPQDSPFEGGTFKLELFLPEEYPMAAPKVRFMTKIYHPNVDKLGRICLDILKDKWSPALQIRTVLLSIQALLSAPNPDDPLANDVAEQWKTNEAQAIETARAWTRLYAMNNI

[6] = biological target: T3, Coagulation factor XII (Homo sapiens, UniProt P00748); experiment: Factor XIIa Dose Response Confirmation from Single Well HTS. [Related pubchem assays (depositor defined):AID701]; type: functional
T3 sequence (P00748 whole entry): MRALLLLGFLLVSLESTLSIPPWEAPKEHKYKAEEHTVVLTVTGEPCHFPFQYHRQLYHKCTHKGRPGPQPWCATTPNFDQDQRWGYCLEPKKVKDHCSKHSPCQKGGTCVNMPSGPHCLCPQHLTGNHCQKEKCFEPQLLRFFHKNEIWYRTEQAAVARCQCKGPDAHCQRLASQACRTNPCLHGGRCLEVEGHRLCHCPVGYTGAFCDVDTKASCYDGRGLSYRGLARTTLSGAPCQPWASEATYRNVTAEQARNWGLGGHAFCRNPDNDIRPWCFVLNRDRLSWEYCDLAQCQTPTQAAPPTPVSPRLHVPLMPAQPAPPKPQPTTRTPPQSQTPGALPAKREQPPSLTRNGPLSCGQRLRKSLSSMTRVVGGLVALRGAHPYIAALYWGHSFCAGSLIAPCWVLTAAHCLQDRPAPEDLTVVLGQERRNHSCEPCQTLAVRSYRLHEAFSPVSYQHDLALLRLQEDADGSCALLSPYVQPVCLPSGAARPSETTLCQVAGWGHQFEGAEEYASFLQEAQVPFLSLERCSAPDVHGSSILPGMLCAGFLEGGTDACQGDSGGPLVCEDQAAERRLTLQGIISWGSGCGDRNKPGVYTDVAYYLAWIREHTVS

[7] = tested on: T-cell; experiment: inhibitors of CD8+ T cell–vesicle binding, dose response, mouse 2C CD8+ T cells, flow cytometry (AID 485284); type: functional
[8] = biological target: Ion channel NompC (Danio rerio, UniProt Q7T1G6); experiment: Dose response cell-based high-throughput screening assay for agonists of the transient receptor potential channel N1 (TRPN1). [Related pubchem assays (depositor defined):AID1424, AID1448]; type: functional
Chain of Ion channel NompC (Q7T1G6 whole entry): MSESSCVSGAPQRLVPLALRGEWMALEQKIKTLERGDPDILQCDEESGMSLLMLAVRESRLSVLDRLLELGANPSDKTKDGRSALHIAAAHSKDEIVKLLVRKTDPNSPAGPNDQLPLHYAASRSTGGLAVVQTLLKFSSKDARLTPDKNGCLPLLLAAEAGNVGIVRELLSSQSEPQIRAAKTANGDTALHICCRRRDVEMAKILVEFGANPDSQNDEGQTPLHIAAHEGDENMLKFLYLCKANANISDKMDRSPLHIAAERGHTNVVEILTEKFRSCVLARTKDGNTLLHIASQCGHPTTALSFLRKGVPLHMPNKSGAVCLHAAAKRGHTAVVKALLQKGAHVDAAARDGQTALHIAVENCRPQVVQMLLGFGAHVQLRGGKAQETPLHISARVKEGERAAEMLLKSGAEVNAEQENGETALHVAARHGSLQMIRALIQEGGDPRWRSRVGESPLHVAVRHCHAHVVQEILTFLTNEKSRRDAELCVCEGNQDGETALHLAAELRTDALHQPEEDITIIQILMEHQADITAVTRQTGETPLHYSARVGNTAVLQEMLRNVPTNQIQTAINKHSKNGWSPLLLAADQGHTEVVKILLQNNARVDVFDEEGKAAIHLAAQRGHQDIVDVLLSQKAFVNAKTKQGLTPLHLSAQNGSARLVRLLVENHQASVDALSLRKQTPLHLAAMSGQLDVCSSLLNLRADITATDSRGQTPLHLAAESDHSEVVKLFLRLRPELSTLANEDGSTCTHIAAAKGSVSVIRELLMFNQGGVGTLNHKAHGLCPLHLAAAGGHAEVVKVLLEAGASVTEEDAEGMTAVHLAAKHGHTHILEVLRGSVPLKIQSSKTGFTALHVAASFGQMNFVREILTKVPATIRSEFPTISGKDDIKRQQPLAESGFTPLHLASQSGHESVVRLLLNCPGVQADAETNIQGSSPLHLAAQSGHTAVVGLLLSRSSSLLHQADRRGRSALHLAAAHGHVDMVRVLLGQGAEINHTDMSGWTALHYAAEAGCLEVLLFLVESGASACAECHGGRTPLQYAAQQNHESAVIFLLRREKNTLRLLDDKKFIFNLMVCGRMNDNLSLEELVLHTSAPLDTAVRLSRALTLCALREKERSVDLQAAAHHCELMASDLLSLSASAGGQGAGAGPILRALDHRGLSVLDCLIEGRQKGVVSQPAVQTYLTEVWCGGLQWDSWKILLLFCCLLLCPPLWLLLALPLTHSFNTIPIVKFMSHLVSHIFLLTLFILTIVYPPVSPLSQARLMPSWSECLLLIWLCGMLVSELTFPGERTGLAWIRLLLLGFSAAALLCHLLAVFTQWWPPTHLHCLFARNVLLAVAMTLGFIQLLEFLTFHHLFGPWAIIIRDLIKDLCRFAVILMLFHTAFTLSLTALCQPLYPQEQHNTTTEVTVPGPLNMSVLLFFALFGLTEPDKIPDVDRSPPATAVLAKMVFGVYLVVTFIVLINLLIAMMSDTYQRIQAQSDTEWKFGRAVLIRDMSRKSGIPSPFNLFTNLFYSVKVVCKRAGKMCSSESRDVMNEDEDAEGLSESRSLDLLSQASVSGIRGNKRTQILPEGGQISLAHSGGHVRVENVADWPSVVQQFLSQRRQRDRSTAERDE

[9] = biological target: T4, Mucolipin-3 (Homo sapiens, UniProt Q8TDD5); experiment: Fluorescence counterscreen assay for […] agonists: dose response cell-based high-throughput screening assay to identify agonists of the transient receptor potential channel ML3 (TRPML3). [Related pubchem assays: 1424, 1448 ]; type: functional
T4 sequence (Q8TDD5 whole entry): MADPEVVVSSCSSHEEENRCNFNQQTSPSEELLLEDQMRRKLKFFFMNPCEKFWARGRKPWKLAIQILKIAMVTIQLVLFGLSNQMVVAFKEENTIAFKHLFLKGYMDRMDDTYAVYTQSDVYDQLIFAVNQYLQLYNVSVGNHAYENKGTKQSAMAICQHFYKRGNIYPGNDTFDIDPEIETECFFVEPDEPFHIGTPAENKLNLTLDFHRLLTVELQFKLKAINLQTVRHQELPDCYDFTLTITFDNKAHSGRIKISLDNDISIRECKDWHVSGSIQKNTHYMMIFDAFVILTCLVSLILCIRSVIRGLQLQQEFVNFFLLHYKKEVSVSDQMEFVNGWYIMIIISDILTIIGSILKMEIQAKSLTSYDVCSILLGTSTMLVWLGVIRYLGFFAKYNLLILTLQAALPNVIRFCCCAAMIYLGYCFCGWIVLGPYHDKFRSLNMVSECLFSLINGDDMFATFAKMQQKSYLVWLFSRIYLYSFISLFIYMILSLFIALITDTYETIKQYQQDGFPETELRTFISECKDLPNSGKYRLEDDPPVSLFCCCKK

[10] = biological target: T5, Heat shock factor protein 1 (Mus musculus, UniProt P38532); experiment: HSF1 potentiators in luciferase reporter cells, confirmation, cell-based, NIH3T3, luminescence, dose retest (AID 435004); type: functional;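 note: stress induced by proteasome inhibitor MG132 added 30 min after compound; luciferase reporter driven by HSF1 response element in NIH3T3 cells; actives raise luminescence as potentiators of the MG132 stress response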
T5 sequence (P38532 whole entry): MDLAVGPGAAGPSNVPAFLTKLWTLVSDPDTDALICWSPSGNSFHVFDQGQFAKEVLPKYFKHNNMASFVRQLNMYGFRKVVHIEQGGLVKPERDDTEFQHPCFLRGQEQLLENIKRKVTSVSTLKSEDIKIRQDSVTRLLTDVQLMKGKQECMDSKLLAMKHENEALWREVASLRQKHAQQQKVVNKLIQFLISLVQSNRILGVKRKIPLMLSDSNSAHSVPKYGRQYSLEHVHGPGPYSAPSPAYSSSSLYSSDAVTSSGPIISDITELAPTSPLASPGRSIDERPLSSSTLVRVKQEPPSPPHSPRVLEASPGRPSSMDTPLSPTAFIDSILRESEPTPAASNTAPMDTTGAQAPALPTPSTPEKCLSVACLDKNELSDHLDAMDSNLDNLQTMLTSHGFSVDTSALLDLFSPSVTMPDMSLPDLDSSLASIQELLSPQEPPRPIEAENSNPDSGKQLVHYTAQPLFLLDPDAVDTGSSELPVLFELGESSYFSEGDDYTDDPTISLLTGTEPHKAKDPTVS

[11] = biological target: UDP-galactopyranose mutase (Mycobacterium tuberculosis, UniProt P9WIQ1); experiment: Inhibitors of Mycobacterium tuberculosis UDP-galactopyranose mutase (UGM) enzyme Measured in Biochemical System Using Plate Reader - 2105-02_Inhibitor_Dose_CherryPick_Activity. [Related pubchem assays (depositor defined):AID504439]
Chain of UDP-galactopyranose mutase (P9WIQ1 whole entry): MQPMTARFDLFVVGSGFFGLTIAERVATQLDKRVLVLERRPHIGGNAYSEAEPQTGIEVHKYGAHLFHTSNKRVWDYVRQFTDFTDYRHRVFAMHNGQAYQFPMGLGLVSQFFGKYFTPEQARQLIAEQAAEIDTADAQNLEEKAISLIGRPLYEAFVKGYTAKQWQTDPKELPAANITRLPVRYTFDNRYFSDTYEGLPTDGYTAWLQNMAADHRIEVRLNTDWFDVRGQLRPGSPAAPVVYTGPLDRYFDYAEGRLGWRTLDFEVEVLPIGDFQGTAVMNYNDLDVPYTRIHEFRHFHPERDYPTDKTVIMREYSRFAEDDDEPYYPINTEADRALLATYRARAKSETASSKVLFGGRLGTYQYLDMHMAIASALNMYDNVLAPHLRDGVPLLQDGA

[12] = tested on: BJ; experiment: cytotoxicity toward Ras-transformed BJeLR fibroblasts, dose response, cell-based, alamar blue fluorescence, cherrypicked samples (AID 2631); type: functional; details: Homo sapiens;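 note: confirmatory dose-response assay in RAS-dependent BJ fibroblasts engineered with TERT, LT and ST, with cytotoxicity read by fluorescence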
[13] = biological target: T6, Tyrosine-protein phosphatase non-receptor type 7 (Homo sapiens, UniProt P35236); type: functional
T6 sequence (P35236 whole entry): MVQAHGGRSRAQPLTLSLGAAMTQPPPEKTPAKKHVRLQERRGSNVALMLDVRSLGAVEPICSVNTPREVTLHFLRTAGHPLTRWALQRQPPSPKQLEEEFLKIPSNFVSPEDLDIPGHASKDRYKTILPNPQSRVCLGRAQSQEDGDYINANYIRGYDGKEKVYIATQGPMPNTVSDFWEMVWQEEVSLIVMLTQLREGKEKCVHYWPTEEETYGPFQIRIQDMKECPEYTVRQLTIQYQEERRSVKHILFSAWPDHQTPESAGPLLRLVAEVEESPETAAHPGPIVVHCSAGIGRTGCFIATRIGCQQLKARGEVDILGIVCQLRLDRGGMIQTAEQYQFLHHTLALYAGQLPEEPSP

[14] = biological target: Glyceraldehyde-3-phosphate dehydrogenase (Homo sapiens, UniProt P04406)
Chain of Glyceraldehyde-3-phosphate dehydrogenase (P04406 whole entry): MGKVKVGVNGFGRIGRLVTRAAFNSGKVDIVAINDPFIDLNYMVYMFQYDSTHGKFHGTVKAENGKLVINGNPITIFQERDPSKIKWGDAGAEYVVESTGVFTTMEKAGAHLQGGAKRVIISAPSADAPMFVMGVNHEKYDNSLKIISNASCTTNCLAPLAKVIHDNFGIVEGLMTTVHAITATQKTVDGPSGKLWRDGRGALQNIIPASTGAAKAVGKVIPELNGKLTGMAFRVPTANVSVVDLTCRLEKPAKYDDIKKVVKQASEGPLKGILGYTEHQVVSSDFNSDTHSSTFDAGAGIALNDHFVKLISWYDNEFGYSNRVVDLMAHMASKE

[15] = cytotoxicity in HPDE-C7 cells, cell-based, fluorescence, HTS (AID 430); type: functional; details: Homo sapiens
[16] = biological target: Large T antigen (Simian virus 40, UniProt P03070); type: functional, Betapolyomavirus macacae;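 note: Confirmatory-stage PubChem screen for compounds that inhibit SV40 T antigen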
Chain of Large T antigen (P03070 whole entry): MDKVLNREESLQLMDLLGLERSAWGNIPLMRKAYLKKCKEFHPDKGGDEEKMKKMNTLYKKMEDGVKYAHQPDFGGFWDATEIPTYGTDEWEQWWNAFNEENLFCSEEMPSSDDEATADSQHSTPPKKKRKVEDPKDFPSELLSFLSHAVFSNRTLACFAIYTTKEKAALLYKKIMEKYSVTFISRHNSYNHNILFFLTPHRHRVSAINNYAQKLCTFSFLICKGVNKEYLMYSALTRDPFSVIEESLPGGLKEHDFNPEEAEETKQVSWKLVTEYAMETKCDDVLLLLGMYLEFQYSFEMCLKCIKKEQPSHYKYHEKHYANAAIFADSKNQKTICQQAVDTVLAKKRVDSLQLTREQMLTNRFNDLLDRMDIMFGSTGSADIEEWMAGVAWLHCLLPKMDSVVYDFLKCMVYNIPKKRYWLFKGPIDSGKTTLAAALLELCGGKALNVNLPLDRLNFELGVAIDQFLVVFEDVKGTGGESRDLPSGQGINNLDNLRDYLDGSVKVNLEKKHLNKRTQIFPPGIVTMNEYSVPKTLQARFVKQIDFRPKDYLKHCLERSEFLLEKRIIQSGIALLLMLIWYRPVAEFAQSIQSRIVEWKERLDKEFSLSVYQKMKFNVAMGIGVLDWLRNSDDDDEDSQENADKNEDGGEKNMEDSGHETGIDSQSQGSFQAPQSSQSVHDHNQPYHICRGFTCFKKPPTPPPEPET

[17] = cytotoxicity in KRAS-transformed pancreatic duct cells, primary screen, cell-based, fluorescence, HTS (AID 431); type: functional; details: Homo sapiens;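 note: cell line used: HPDE-C7K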
[18] = biological target: T7, Dual specificity protein phosphatase 6 (Rattus norvegicus, UniProt Q64346)
T7 sequence (Q64346 whole entry): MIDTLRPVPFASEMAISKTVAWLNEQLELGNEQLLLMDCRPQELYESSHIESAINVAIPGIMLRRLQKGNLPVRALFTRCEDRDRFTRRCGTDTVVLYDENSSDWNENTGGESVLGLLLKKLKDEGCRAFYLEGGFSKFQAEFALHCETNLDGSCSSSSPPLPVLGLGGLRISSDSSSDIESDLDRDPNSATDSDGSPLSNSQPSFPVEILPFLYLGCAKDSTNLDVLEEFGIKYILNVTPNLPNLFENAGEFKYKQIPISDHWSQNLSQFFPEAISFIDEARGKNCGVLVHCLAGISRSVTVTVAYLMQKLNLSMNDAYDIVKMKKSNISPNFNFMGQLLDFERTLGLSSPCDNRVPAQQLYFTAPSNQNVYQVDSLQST

[19] = biological target: Ephrin type-A receptor 4 (Mus musculus, UniProt Q03137); experiment: inhibitors of EphA4 binding to KYL peptide, primary screen, biochemical, colorimetric, mouse EphA4 (AID 689); type: functional
Chain of Ephrin type-A receptor 4 (Q03137 whole entry): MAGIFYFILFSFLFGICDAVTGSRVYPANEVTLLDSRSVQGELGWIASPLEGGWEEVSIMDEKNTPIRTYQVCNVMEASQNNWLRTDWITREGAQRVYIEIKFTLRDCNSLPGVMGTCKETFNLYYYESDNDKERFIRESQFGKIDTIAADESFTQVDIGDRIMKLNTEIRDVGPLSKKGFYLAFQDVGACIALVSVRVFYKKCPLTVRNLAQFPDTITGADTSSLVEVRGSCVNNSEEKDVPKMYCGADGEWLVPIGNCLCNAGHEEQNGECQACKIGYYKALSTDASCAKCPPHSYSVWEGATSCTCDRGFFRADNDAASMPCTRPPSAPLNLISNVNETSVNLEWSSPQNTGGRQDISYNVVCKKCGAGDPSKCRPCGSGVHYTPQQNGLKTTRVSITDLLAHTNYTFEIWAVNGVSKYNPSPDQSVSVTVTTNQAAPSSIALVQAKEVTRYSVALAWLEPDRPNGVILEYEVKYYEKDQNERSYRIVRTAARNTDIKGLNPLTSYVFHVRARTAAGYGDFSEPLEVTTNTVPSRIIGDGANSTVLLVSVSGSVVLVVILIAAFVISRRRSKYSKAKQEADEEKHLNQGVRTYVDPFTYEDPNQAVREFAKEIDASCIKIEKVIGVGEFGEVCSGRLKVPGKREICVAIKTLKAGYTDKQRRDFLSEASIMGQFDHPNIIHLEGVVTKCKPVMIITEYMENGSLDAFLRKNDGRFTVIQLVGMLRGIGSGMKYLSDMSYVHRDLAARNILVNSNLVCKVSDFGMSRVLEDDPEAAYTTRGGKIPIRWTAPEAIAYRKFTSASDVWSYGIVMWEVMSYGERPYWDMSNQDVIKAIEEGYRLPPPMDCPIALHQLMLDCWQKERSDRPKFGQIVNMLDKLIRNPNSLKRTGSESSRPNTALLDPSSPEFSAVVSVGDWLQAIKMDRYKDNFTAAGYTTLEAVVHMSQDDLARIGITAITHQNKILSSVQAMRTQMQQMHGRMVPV

[20] = biological target: Dual specificity protein phosphatase 3 (Homo sapiens, UniProt P51452); experiment: SAR VHR1 Fluorescent Assay for In Vitro dose response studies. [Related pubchem assays (depositor defined):AID1654, AID1661, AID1878, AID1992, AID2004, AID2070, AID2085]; type: functional
Chain of Dual specificity protein phosphatase 3 (P51452 whole entry): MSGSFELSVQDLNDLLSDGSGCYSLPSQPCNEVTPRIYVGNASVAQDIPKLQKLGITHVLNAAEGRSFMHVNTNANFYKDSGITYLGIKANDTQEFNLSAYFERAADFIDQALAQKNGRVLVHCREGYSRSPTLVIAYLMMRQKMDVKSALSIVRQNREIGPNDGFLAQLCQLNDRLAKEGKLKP

[21] = biological target: T6, Tyrosine-protein phosphatase non-receptor type 7; experiment: redox-dependent HePTP inhibition, mechanism study, biochemical, fluorescence (AID 2068); type: functional
[22] = biological target: T8, Cysteine protease ATG4B (Homo sapiens, UniProt Q9Y4P1); type: functional;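 note: Fluorescence-based dose-response confirmation assay measuring inhibition of ATG4B activity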
T8 sequence (Q9Y4P1 whole entry): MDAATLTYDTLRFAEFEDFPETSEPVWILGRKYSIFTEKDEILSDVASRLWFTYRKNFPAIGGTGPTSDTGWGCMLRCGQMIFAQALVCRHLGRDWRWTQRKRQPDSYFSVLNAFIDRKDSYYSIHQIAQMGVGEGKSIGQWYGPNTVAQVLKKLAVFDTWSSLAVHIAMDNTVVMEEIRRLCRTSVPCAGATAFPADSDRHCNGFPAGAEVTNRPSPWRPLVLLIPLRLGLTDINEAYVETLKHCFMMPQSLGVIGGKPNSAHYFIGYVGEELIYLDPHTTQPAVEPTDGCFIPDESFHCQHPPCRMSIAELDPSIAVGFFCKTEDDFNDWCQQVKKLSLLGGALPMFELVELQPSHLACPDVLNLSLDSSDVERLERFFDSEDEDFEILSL

[23] = biological target: Phospholipase A2 (Homo sapiens, UniProt P04054); type: functional;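 note: confirmatory dose-response counterscreen on phospholipase A2, testing hits that came from an ultra-high-throughput screen for ATG4B inhibitors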
Chain of Phospholipase A2 (P04054 whole entry): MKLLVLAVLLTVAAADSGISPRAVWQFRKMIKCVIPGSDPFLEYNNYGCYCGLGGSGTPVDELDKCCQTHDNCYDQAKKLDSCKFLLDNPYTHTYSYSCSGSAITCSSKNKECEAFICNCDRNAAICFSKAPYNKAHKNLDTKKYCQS

[24] = biological target: T7, Dual specificity protein phosphatase 6; type: functional

## Cc1cc2oc(C(=O)N(Cc3ccccc3)C3CCS(=O)(=O)C3)cc(=O)c2cc1Cl (centres undefined)
[1]
  EC50: 3.76 µM (active)

## CCCCN(CC)CCNC(=O)c1cc2c(=O)n(C)c3ccccc3c2s1
[2]
  CC50: 69 µM (active)
[3]
  EC50: 2.29 µM (active)
[4]
  EC50: > 60 µM (not active)
[5]
  IC50: > 20 µM (inactive)
[1]
  EC50: 0.07 µM (active)

## COc1cc(OC)cc(-c2nnc(SCc3cccc(C(=O)O)c3)o2)c1
[6]
  IC50: > 50 µM (inactive)

## Cc1cccc(NC(=O)C2CCN(S(=O)(=O)c3c(C)nc(O)nc3O)CC2)c1
[7]
  EC50: 8.65 µM (active)

## O=C(c1cn(-c2ccccc2)nc1-c1ccncc1)n1nnc2ccccc21
[6]
  IC50: 0.973 µM (active)

## CCC1(C)NC(=O)N(CC(=O)N2N=C(c3ccccc3)CC2c2ccc(OC)cc2)C1=O (centres undefined)
[7]
  EC50: 16.1 µM (active)

## Cc1cc2nc3c(=O)n(CCc4ccccc4)c(=O)[nH]c3nc2cc1N
[8]
  EC50: 3.55 µM (active)
[9]
  EC50: 6.23 µM (active)
[10]
  EC50: > 260 µM (inactive)
[11]
  AC50: 2.29 µM (active)

## COc1ccc2[nH]c3c(NCCC4=CCCCC4)ncnc3c2c1
[8]
  EC50: > 29.9 µM (inactive)
[9]
  EC50: > 29.9 µM (not active)
[12]
  EC50: > 133 µM (inactive)

## Clc1ccccc1CSc1nnc(-c2ccco2)c(-c2ccco2)n1
[13]
  IC50: 10.4 µM (active)
[14]
  IC50: > 100 µM (not active)
[15]
  EC50: 15 µM (active)
[16]
  IC50: 54.4 µM (active)
[17]
  EC50: 15.4 µM (active)
[18]
  IC50: 31.2 µM (active)
[19]
  IC50: 2.46 µM (active)
[20]
  IC50: 19.7 µM (active)
[21]
  IC50: 0.329 µM (active)
[22]
  IC50: 11.4 µM (active)
[23]
  IC50: 7.53 µM (active)
[24]
  IC50: 24.2 µM (active)
